Test results published in patent US20230390248A1, “COMPOSITION FOR ENHANCING TUMOR PENETRATION OF ANTICANCER DRUG, COMPRISING LOSARTAN AS ACTIVE INGREDIENT, AND USE THEREOF” (priority 2020, published 2023).

What was measured:
Assay type in all cases: in vivo, BALB/c nude mice
gastric cancer (NCI-N87) = experiment: Treatment efficacy of combined RIT using losartan and ^64Cu-TRZ; conditions: compared to the control (PBS); losartan 60 mg/kg s.c. for 25 days; FIG. 5A
Description: To identify gastric cancer (NCI-N87) treatment efficacy of the combined therapy using losartan and trastuzumab, the groups were classified into ^64Cu-TRZ treated group (n=7), losartan-included ^64Cu-TRZ treated group (n=7), losartan solely treated group (n=6), TRZ solely treated group (n=6), and PBS treated group (n=8). […] Losartan was delivered subcutaneously (60 mg/kg for 25 days), and TRZ (150 μg) was injected intravenously once at the start of treatment.

collagen = experiment: Masson trichrome staining of collagen in gastric cancer tissue; conditions: gastric cancer tumor tissue; versus control; FIG. 3A
Description: Masson trichrome staining was performed for histological visualization of collagen, an extracellular component, which is considered as a disorder when TRZ travels. Tumor tissues were obtained by sacrificing animals. The obtained tissues were fixed overnight in 4% paraformaldehyde and transferred to OCT compounds (Sakura Finetec, USA). The tissues were sectioned to a thickness of 40 μm. Staining was performed according to the kit protocol (Abcam (www.abcam.com) ab150686).
Bouin's Fluid was applied to each section and cultured overnight at room temperature. The slides were washed with water, cultured in Weigert's iron hematoxylin for 5 minutes, then washed with tap water, and cultured in Biebrich scarlet/acid fuchsin solution for […]. Without washing, the slides were re-cultured with aniline blue for 30 minutes. The slides were then washed with water and cultured in acetic acid for 3-5 minutes.
It was also dehydrated in graded alcohol, washed in xylene, and then mounted to a class slide using a mounting medium. The slides were visualized, and images were filmed with the Olympus BX53 system microscope (Olympus, life science solution, Waltham, Massachusetts (02453)).

hyaluronan = experiment: Hyaluronan staining (alcian blue) in gastric cancer tissue; conditions: gastric cancer tumor tissue; versus control; FIG. 3B
Description: Hyaluronan staining was performed using alcian blue stain kit (Vector laboratories, Burlingame, CA 94010, Alcian Blue (pH 2.5), Stain kit, H-3501). The tissues were sectioned to a thickness of 20 μm. The sections were washed with water to remove excess OCT. Acetic acid was treated to tissue sections for 3 minutes, and then Alcian blue solution was treated at 37° C. for 30 minutes. Excess staining was removed by washing with acetic acid. It was then washed with tap water for 2 minutes and then with distilled water for 1-2 minutes. In addition, the nuclear fast red solution was treated for 5 minutes, and washing was followed with tap water and then with distilled water. The slides were dehydrated in graded alcohol and removed from xylene, and then a cover slip was mounted. The slides were visualized, and images were filmed with Olympus BX53 system microscope (Olympus, life science solution, Waltham, Massachusetts (02453)).

SMILES: CCCCc1nc(Cl)c(CO)n1Cc1ccc(-c2ccccc2-c2nn[nH]n2)cc1 [losartan]
- tumor growth response (gastric cancer (NCI-N87)): tumoricidal response
- collagen (masson trichrome staining) (collagen): reduced collagen
- hyaluronan (alcian blue staining) (hyaluronan): reduced hyaluronan
